Reference: PMC11211886 (Frontiers in Pharmacology, 2024)
Several values for one entry are separate records, joined by “and”; a condition that tells them apart may be missing. Equal values may be shown once. Read-outs that look alike come from different tables or passages of the source.

Key:
[1] = Single-dose PK and food effect in beagle dogs (IV/PO); parameters: species or system beagle dog; details: in vivo; for AUC(0-inf): AUC0-inf
Experimental: Twelve beagle dogs (6-10 kg, male: female = 1:1) purchased from Beijing Marshall Biotechnology Co. Ltd. (Beijing, China) were enrolled in a three-period self-control cross-over study with a washout time of 1 week. […] In Period 1 and Period 2, dogs were fasted overnight until dosing. […] Approximately 1.0 mL of blood was collected per time point from the jugular vein using a 2 mL injector and transferred to a 3 mL tube that contained sodium heparin. The collected blood samples were centrifuged at 3,500 g for 5 min at 4°C to collect plasma within 30 min after sample collection. […] Animals were fasted overnight and for approximately 4 h post-dose. […] At each time point, approximately 1.0 mL of blood was collected from the femoral vein and transferred into an individual tube that contained sodium heparin. The blood samples were centrifuged at 3,500 g for 5 min at 4°C to harvest plasma.

[2] = Caco-2 bidirectional transport permeability; type: in vitro ADME, human; details: human
Experimental: (§1) The passage number of cells used in this study was 39. Non-specific binding to the device surfaces and the aqueous solubility of test compounds were tested before the transport experiment. […] The integrity of the monolayer was estimated by measuring transepithelial electrical resistance (TEER). Only the monolayers with TEER over 150 Ω were used for the studies.

[3] = test system: Caco-2 cell monolayers; test: Caco-2 bidirectional transport permeability; type: in vitro ADME, human
Experimental: as §1

[4] = test system: plasma proteins; test: Plasma protein binding (RED), rat plasma; type: in vitro ADME
Experimental: The plate containing plasma and buffer was equilibrated for 6 h in a 37°C water shaking bath. After incubation, aliquots of buffer and plasma (20 µL) on both sides were collected and precipitated using organic solvents. […] The post-dialysis recovery of amdizalisib was also measured.

[5] = Metabolic stability in human liver microsomes; type: in vitro ADME
Experimental: (§2) FMO was deactivated by heating liver microsomes at 45°C for 5 min. […] The natural logarithm of the percentage of the drug remaining was plotted against the incubation time, and the slope of the linear regression (-k) was converted to in vitro half-lives (t1/2) using the following equation: […] (1) metabolic clearance is the major mechanism of clearance; (2) liver is the major organ of clearance; and (3) oxidation is the major metabolic pathway. CLint,in vitro=k / Cmicrosomes , Scaled CLint,in vivo=CLint,in vitro×microsomes yield×liver weight, where Cmicrosomes means the experimental protein concentration (0.5 mg/mL) in the incubation system. […] Then, the scaled in vivo intrinsic clearance was used to predict the systemic clearance (equal to the hepatic clearance) using the well-stirred venous equilibration model ([Houston, 1994]).

[6] = Metabolic stability in monkey liver microsomes; type: in vitro ADME
Experimental: as §2

[7] = target: T1, CYP2C9 (Homo sapiens, UniProt P11712); test: Reversible CYP inhibition in HLM, CYP2C9 (diclofenac); type: in vitro ADME; details: for enzyme activity remaining: CYP2C9, HLM
T1 construct: tissue Life Technologies (Durham, NC, USA); host or cells: human liver microsomes
Experimental: The markers used to determine the activities of CYP isoforms were phenacetin O-deethylation for CYP1A2 (probe substrate: 50 µM phenacetin), bupropion hydroxylation for CYP2B6 (probe substrate: 70 µM bupropion), paclitaxel 6α-hydroxylation for CYP2C8 (probe substrate: 10 µM paclitaxel), diclofenac 4′-hydroxylation for CYP2C9 (probe substrate: 5 µM diclofenac), S-(+)-mephenytoin 4′-hydroxylation for CYP2C19 (probe substrate: 20 µM S-(+)-mephenytoin), dextromethorphan O-demethylation for CYP2D6 (probe substrate: 6 µM dextromethorphan), chlorzoxazone 6′-hydroxylation for CYP2E1 (probe substrate: 70 µM chlorzoxazone), and testosterone 6β-hydroxylation and midazolam 1′-hydroxylation for CYP3A4/5 (probe substrate: 45 µM testosterone and 5 µM midazolam). […] Alpha-naphthoflavone (0.04 µM), 2-phenyl-2-(1-piperidinyl)propane (5 µM), quercetin (1 µM), sulfaphenazole (0.5 µM), ticlopidine (4 µM), quinidine (0.2 µM), diethyldithiocarbamate (20 µM), and ketoconazole (0.05 µM) were used as positive inhibitors of CYP1A2, 2B6, 2C8, 2C9, 2C19, 2D6, 2E1, and 3A4, respectively. The vehicle control was prepared in the same composition as inhibitor solutions but free of inhibitors. The concentrations of probe substrates were close to Km values that were determined in-house and within the range recommended by the FDA ([Huang et al., 2007]). Reaction mixtures were incubated at 37°C for 5, 20, or 30 min, depending on the probe substrates of CYP isoforms. The reactions were terminated by adding cold acetonitrile containing IS, and the terminated incubation mixtures were centrifuged at 3,000 g for 10 min before LC-MS/MS analysis.

[8] = both sexes, beagle, dog, iv, 0.5 mg/kg
[9] = both sexes, beagle, dog, po, 0.5 mg/kg
[10] = both sexes, beagle, dog, po, 3.5 mg/kg
[11] = both sexes, beagle, dog, po, 25 mg/kg

T1 sequence (P11712 whole entry): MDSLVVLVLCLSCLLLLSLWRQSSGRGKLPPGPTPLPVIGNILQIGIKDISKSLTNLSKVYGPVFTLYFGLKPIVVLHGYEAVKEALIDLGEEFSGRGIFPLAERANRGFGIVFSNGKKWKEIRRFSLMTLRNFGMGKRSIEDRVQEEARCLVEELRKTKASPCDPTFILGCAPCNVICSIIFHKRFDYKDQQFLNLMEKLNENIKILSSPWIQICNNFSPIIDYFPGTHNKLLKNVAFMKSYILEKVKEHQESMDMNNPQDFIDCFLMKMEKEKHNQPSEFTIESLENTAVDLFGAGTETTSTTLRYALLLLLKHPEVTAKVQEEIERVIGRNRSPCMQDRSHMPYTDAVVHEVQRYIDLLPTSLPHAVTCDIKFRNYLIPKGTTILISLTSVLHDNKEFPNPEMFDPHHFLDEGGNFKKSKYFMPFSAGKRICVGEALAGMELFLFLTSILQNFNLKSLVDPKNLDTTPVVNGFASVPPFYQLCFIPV

SMILES: C[C@H](Nc1ncnc(N)c1C#N)c1cc2ncc(Cl)n2nc1-c1ccccc1 [Amdizalisib]
- AUC(0-t) [1, 8]: 750 ± 272 ng·h/mL
- Vd [1, 8]: 2.4 ± 0.354 L/kg
- AUC(0-inf) [1, 8]: 772 ± 272 ng·h/mL
- MRT ([1]; both sexes, beagle, dog, iv, 0.5 mg/kg, Beagle dog, fasted, IV 0.5 mg/kg, read-out: MRT): 3.65 ± 1.29 h
- half-life ([1]; both sexes, beagle, dog, iv, 0.5 mg/kg, Beagle dog, fasted, IV 0.5 mg/kg, read-out: t1/2 (converted)): 3.02 ± 1.27 h
- MRT [1, 9]: 9.66 ± 6.73 h
- Tmax [1, 9]: 1.92 ± 0.665 h
- half-life [1, 9]: 7.22 ± 6.55 h
- AUC(0-inf) [1, 9]: 359 ± 259 ng·h/mL
- Cmax ([1]; both sexes, beagle, dog, po, 0.5 mg/kg, Cmax): 42.4 ± 21.8 ng/mL
- AUC(0-t) [1, 10]: 5540 ng·h/mL
- MRT [1, 10]: 13.8 ± 4.85 h
- Tmax [1, 10]: 6.25 ± 9.11 h
- AUC(0-inf) [1, 10]: 5660 ng·h/mL
- half-life ([1]; both sexes, beagle, dog, po, 3.5 mg/kg, Beagle dog, fasted, PO 3.5 mg/kg, read-out: t1/2 (converted)): 6.08 ± 1.48 h
- AUC(0-t) [1, 11]: 66500 ng·h/mL
- AUC(0-inf) [1, 11]: 72800 ng·h/mL
- MRT ([1]; both sexes, beagle, dog, po, 25 mg/kg, Beagle dog, fasted, PO 25 mg/kg, read-out: MRT): 31.8 ± 10.2 h
- Tmax ([1]; both sexes, beagle, dog, po, 25 mg/kg, Beagle dog, fasted, PO 25 mg/kg, read-out: Tmax): 15 ± 10.4 h
- half-life ([1]; both sexes, beagle, dog, po, 25 mg/kg, Beagle dog, fasted, PO 25 mg/kg, read-out: t1/2 (converted)): 13.9 ± 5.07 h
- Tmax ([1]; both sexes, beagle, dog, po, 25 mg/kg, Beagle dog, fed, PO 25 mg/kg, read-out: Tmax): 7 ± 8.34 h
- half-life ([1]; both sexes, beagle, dog, po, 25 mg/kg, Beagle dog, fed, PO 25 mg/kg, read-out: t1/2 (converted)): 17.4 ± 2.49 h
- clearance ([1]; both sexes, Beagle dog, fasted, IV 0.5 mg/kg): 11.8 ± 3.61 mL/min/kg
- Cmax ([1]; both sexes, Beagle dog, fasted, PO 3.5 mg/kg, read-out: Cmax): 347 ± 105 ng/mL
- CL as % of the hepatic blood flow ([1]; both, beagle, dog, iv): 38.1%
- Cmax ([1]; both, beagle, dog, po, 25 mg/kg): 2,159 ± 1,070 ng/mL
- Papp A→B at 30 min, 10 µM [2]: 45.7 ×10⁻⁶ cm/s
- Papp A→B at 60 min, 5 µM [2]: 38.5 ×10⁻⁶ cm/s
- Papp A→B at 60 min, 10 µM [2]: 39.9 ×10⁻⁶ cm/s
- Papp A→B at 60 min, 20 µM [2]: 40.9 ×10⁻⁶ cm/s
- Papp A→B at 60 min, 40 µM [2]: 36.3 ×10⁻⁶ cm/s
- Papp A→B at 60 min, 60 µM [2]: 42.2 ×10⁻⁶ cm/s
- Papp A→B at 90 min, 10 µM [2]: 38.9 ×10⁻⁶ cm/s
- Papp A→B at 120 min, 10 µM [2]: 36.9 ×10⁻⁶ cm/s
- Papp A→B at 150 min, 10 µM [2]: 37.1 ×10⁻⁶ cm/s
- Papp B→A at 30 min, 10 µM [2]: 69.5 ×10⁻⁶ cm/s
- Papp B→A at 60 min, 5 µM [2]: 50.4 ×10⁻⁶ cm/s
- Papp B→A at 60 min, 20 µM [2]: 52.3 ×10⁻⁶ cm/s
- Papp B→A at 60 min, 40 µM [2]: 45.4 ×10⁻⁶ cm/s
- Papp B→A at 60 min, 60 µM [2]: 47.9 ×10⁻⁶ cm/s
- Papp B→A at 60 min, 80 µM [2]: 45.4 ×10⁻⁶ cm/s
- Papp B→A at 90 min, 10 µM [2]: 57.1 ×10⁻⁶ cm/s
- Papp B→A at 120 min, 10 µM [2]: 56 ×10⁻⁶ cm/s
- Papp B→A at 150 min, 10 µM [2]: 55.6 ×10⁻⁶ cm/s
- Papp A→B at 60 min, 80 µM ([2]; substrate 80 µM, 60 min): 47.7 ×10⁻⁶ cm/s
- Transporter substrate [3]: Not a substrate of P-gp and BCRP
- Binding fraction to plasma proteins, Rat ([4]; 0.1 µM): 87.2 ± 1.72%
- Binding fraction to plasma proteins, Rat ([4]; 1 µM): 90.2 ± 0.65%
- Binding fraction to plasma proteins, Rat ([4]; 20 µM): 89.9 ± 0.37%
- Predicted CL sys ([5]; female human liver microsomes, FMO deactivation): 5.07 mL/min/kg
- CLint scaled at 1 µM ([5]; female, human, microsomes, pH 7.4, Predicted CL int, iv vivo): 5.78 mL/min/kg
- half-life at 1 µM ([5]; female, human, microsomes, pH 7.4, in vitro t1/2): 2.32 h
- parent drug remaining ([5]; male, human, microsomes, 2 h, 1 µM, pH 7.4): > 80%
- CLint scaled at 1 µM ([6]; female, monkey, microsomes, pH 7.4, Predicted CL int, iv vivo): 19.2 mL/min/kg
- half-life at 1 µM ([6]; female, monkey, microsomes, pH 7.4, in vitro t1/2): 1.63 h
- Predicted CL sys ([6]; male monkey liver microsomes, FMO deactivation): 15.9 mL/min/kg
- CLint scaled at 1 µM ([6]; male, monkey, microsomes, pH 7.4, Predicted CL int, iv vivo): 30 mL/min/kg
- half-life at 1 µM ([6]; male, monkey, microsomes, pH 7.4, in vitro t1/2): 1.04 h
- CLint scaled at 1 µM ([6]; pH 7.4, female monkey liver microsomes, FMO deactivation, read-out: Predicted CL int, iv vivo): 18.1 mL/min/kg
- half-life at 1 µM ([6]; pH 7.4, female monkey liver microsomes, FMO deactivation, read-out: in vitro t1/2): 1.72 h
- enzyme activity remaining ([7]; 0.08 μM): 98.3% and 99.7%
- enzyme activity remaining ([7]; 0.4 μM): 94.2% and 95.6%
- enzyme activity remaining ([7]; 2 μM): 82.6%
- enzyme activity remaining ([7]; 10 μM): 53.7% and 52.8%
- enzyme activity remaining ([7]; 50 μM): 17.2% and 16.0%
- IC50 ([7]; HLM, reversible, without pre-incubation): 10.7 µM
